Results as given in ChEMBL document CHEMBL2401715, “Synthesis, antitumor and antibacterial activities of some novel tetrahydrobenzo[4,5]thieno[2,3-d]pyrimidine derivatives” (Eur J Med Chem, 2013).

Legend:
Escherichia coli = assay: Antibacterial activity against Escherichia coli ATCC 11775 assessed as growth inhibition after 24 to 48 hrs by kirby-bauer disc diffusion method; type: functional, DSM 30083 = JCM 1649; further: test concentration or dose not given here
Bacillus subtilis = assay: Antibacterial activity against Bacillus subtilis ATCC 6051 assessed as growth inhibition after 24 to 48 hrs by kirby-bauer disc diffusion method; type: functional; further: test concentration or dose not given here
HepG2 = assay: Cytotoxicity against human HepG2 cells assessed as cell survival after 48 hrs by SRB assay; type: functional, cell-based; conditions: HepG2, 48 h
Pseudomonas aeruginosa [1] = assay: Antibacterial activity against Pseudomonas aeruginosa ATCC 10145 assessed as growth inhibition after 24 to 48 hrs by kirby-bauer disc diffusion method; type: functional; further: test concentration or dose not given here
Staphylococcus aureus [2] = assay: Antibacterial activity against Staphylococcus aureus ATCC 12600 assessed as growth inhibition after 24 to 48 hrs by kirby-bauer disc diffusion method; type: functional; further: test concentration or dose not given here
MCF7 = assay: Cytotoxicity against human MCF7 cells assessed as cell survival after 48 hrs by SRB assay; type: functional, cell-based; conditions: MCF7, 48 h
Staphylococcus aureus [3] = assay: Antibacterial activity against Staphylococcus aureus ATCC 12600 assessed as growth inhibition by broth microdilution method; type: functional
Pseudomonas aeruginosa [4] = assay: Antibacterial activity against Pseudomonas aeruginosa ATCC 10145 assessed as growth inhibition by broth microdilution method; type: functional

Structure (SMILES)	diameter of the inhibition zone (DIZ) (Escherichia coli) [mm]	diameter of the inhibition zone (DIZ) (Bacillus subtilis) [mm]	IC50 (HepG2) [µM]	diameter of the inhibition zone (DIZ) (Pseudomonas aeruginosa [1]) [mm]	diameter of the inhibition zone (DIZ) (Staphylococcus aureus [2]) [mm]	IC50 (MCF7) [µM]	MIC (Staphylococcus aureus [3]) [µg/mL]	MIC (Pseudomonas aeruginosa [4]) [µg/mL]
COc1cc(-c2nc3sc4c(c3c(=O)n2C(N)=S)CCCC4)cc(OC)c1OC	14	12	> 232	13	12	77.6		
COc1cc(-c2nc3sc4c(c3c(=O)n2C(N)=O)CCCC4)cc(OC)c1OC	16	16	25.8	17	16	26.2		
COc1cc(-c2nc3sc4c(c3c(=O)n2C(=O)NO)CCCC4)cc(OC)c1OC	14	13	14.4	13	12	71.2		
COc1cc(-c2nc3sc4c(c3c(=O)n2-c2ccc(C(=O)O)cc2)CCCC4)cc(OC)c1OC	10	12	29.6	10	11	> 203		
COc1cc(-c2nc3sc4c(c3c(=O)n2-c2ccc(S(N)(=O)=O)cc2)CCCC4)cc(OC)c1OC	12	14	> 190	13	9	37.1		
COc1cc(-c2nc3sc4c(c3c(=O)n2-c2ccc3c(C)c5ccc(N)cc5nc3c2)CCCC4)cc(OC)c1OC	22	23	5.5	25	26	0.86	8	11
Cc1c2ccc(N)cc2nc2cc(-n3c(/C=C/c4ccccc4)nc4sc5c(c4c3=O)CCCC5)ccc12	21	20	5.82	21	24	0.19	13	18
CC1(C)S[C@@H]2[C@H](NC(=O)[C@H](N)c3ccccc3)C(=O)N2[C@H]1C(=O)O [AMPICILLIN]	22	20		17	18		48	56
